Results: PMC9969401, “Discovery of 2-(3-Benzamidopropanamido)thiazole-5-carboxylate Inhibitors of the Kinesin HSET (KIFC1) and the Development of Cellular Target Engagement Probes” (Journal of Medicinal Chemistry, 2023)
Read-outs that look alike come from different tables or passages of the source. Each block holds one molecule with its values, some of them ahead of it.

What was measured:
[1] = biological target: T1, GST-tagged Eg5 motor domain (Homo sapiens, UniProt P52732); test: ADP-Glo Eg5 assay (4.8 μM ATP); assay type: biochemical; details: for IC50: preformed microtubules, 4.8 μM ATP (Table 4)
T1 construct: 4 nM GST-tagged Eg5 motor domain protein (Cytoskeleton, EG01); purchased Cytoskeleton EG01
T1 sequence (P52732 18-359 limits assumed): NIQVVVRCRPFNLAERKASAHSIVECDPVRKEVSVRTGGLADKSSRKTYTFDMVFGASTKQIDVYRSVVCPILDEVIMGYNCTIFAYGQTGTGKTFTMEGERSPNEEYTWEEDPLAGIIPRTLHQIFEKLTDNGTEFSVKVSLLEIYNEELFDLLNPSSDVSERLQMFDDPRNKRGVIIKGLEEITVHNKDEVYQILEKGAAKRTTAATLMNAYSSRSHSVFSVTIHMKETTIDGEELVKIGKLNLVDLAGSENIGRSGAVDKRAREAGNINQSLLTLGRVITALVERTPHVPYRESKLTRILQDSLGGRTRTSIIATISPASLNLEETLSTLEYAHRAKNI
Procedure: (§1) The HSET or Eg5 ATPase activity was measured using the ADP-Glo Kinase Assay kit (Promega, V9102). The assays were run using final concentrations of 5 nM full-length human N-terminal His-tag HSET or 4 nM GST-tagged Eg5 motor domain protein (Cytoskeleton, EG01) and an assay buffer containing 20 mM HEPES pH 6.8, 10 mM MgCl2, 0.25 mM EGTA, 0.4 mM Triton X-100, and 1 mM DTT. Preformed microtubules (Universal Biologicals Cambridge, bovine MT001-XL, or porcine MT002-XL), which were reconstituted in 15 mM PIPES pH 7, 1 mM MgCl2, and 20 μM paclitaxel, were present at a final assay concentration of 70 μg/mL. A reaction volume of 5 μL was used in Proxiplate 384 plus white assay plates (PerkinElmer, 6008280). To measure compound inhibition, 100 nL of compound dissolved in DMSO or DMSO alone was preincubated with the HSET and microtubules for 10 min before 3 μM Ultra-Pure ATP was added to start the ATPase reaction for the 3 μM ATP HSET assay. For the 500 μM ATP HSET assay, the addition of 500 μM Ultra-Pure ATP was used. For the Eg5 ATPase assay, 4.8 μM Ultra-Pure ATP was used. All reactions were incubated at 25 °C for 80 min and then stopped by the addition of 5 μL of the ADP-Glo reagent. 10 μL of Kinase Detection Reagent was then added after a further 45 min of incubation. The luminescence was read after 45 min on a PheraStar FSX plate reader (BMG Labtech). The data processing was performed using Dotmatics Studies software package. Percentage inhibition was determined based on normalization to high controls (0% inhibition, all reagents with 100 nL of DMSO alone) and low controls (100% inhibition […], without HSET). The IC50 values for each compound were determined using a four-parameter logistic curve fit of % inhibition versus concentration.

[2] = tested on: non-centrosome amplified DLD1 (4N) cells; test: Multipolar spindle assay (4N cell line); assay type: cell-based, human; details: for % Multipolarity above baseline @ 15 mM (4N cells): supplementary CSV; for % multipolarity above baseline @ 15 μM (4N cells): 4N DLD1 cells (Table 4)
Excerpt: (§2) The cellular models consisted of chromosomally stable human colon cancer DLD1 diploid (2N) and tetraploid (4N) cells, along with tetraploid centrosome -amplified (4NCA) DLD1 cells and DLD1 HSET knockout (KO) cells. DLD1 2N and 4N cells were generated and characterized as previously described.[27],[41],[42] In order to generate 4NCA cells, we used dihydro-cytochalasin B (DCB) to transiently block cytokinesis and induce tetraploidisation and centrosome amplification in DLD1 cells. Centrosome amplification in 4NCA cells is transient and therefore they were generated from 2N cells for each run of the assay.[27] The DLD1 HSET KO cells were knockout clones generated by CRISPR and validated by sequencing to have a homozygous deletion in the KIFC1 gene.
(§3) Inhibition of HSET-mediated clustering was measured using a phenotypic assay measuring the formation of multipolar metaphase spindles in DLD1 cells with (4NCA) or without (4N) centrosome amplification. 4NCA cells were generated by treating 2N DLD1 cells with 2 μΜ DCB for 24 h, washed, and released in growth media for 24 h. 4N and 4NCA DLD1 cells were plated in 96-well ibidi μ-Clear plates (IB-89626, ibidi) with a no. 1.5 polymer coverslip bottom with optimal imaging properties. To enrich the mitotic population, cells were first treated for 3.5 h with 8 μM pro-TAME (I-440-01M, R&D system), an inhibitor of APC/C that transiently arrests cells in metaphase without affecting the structure of the spindle. Following the initial arrest, cells were treated with HSET compounds in the presence of 8 μM MG-132 (S2619, SelleckChem), a proteasome inhibitor that helps to maintain the metaphase arrest, where the number of spindle poles/cell can be optimally quantified by an automated segmentation analysis.
(§4) Cells were then fixed in methanol and stained for 3 h for mitotic pole marker aurora A (1:1000 610939 mouse anti-IAK1, BD Biosciences) and phosphorylated histone H3 (1:1500 ab47297 anti-histone H3 pS10, Abcam) as a marker of mitotic cells in 1.5% FBS in PBS. Following primary antibody treatment, cells were incubated with secondary antibodies Alexa Fluor 488 goat antimouse and Alexa Fluor 555 goat antirabbit (1:1500, A11029 and A21429, respectively, Life Technologies) together with 1 μg/mL DAPI (D9542, Sigma) in 1.5% FBS in PBS. Image acquisition was performed at 10× using the GE INCELL 2200 High Content Imaging System (Cytiva) and analyzed using the InCell Investigator software. Mitotic cells were identified by high pHH3 staining and were scored as multipolar if they had more than two mitotic spindle poles. The percentage of multipolar mitoses was calculated by dividing the number of multipolar mitoses by the total of all visible mitoses in one well of a 96-well plate (n > 100 for each replicate, two replicates per concentration point).

[3] = biological target: T2, recombinant full-length HSET (Homo sapiens, UniProt Q9BW19); test: ADP-Glo HSET assay (3 μM ATP), microtubule-stimulated ATPase; assay type: biochemical; details: for LE: LE = −1.4Log(IC50 [M])/number of non-hydrogen atoms (Table 1); for LLE: LLE = −Log(IC50 [M]) – cLogP (MoKa) (Table 1)
T2 construct: 5 nM full-length human N-terminal His-tag HSET; His-tag (N)
T2 sequence (Q9BW19 1-673): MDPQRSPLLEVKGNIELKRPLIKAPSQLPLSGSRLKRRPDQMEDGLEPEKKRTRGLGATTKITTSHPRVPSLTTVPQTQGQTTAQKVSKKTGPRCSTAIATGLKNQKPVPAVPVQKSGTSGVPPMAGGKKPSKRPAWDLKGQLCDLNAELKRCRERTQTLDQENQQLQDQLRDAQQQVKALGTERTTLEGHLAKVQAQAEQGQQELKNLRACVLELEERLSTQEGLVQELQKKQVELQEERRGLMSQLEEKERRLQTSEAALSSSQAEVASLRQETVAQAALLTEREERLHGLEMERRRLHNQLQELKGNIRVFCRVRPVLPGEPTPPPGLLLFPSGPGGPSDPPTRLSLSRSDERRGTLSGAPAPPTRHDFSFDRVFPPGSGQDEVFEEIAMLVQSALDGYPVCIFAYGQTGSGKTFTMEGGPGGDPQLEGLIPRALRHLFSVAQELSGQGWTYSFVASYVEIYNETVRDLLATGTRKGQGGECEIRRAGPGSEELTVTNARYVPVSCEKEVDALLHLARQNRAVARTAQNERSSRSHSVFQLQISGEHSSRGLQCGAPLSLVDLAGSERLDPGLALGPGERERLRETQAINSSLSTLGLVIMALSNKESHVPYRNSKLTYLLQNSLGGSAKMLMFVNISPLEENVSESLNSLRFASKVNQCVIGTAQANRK
Procedure: as §1

[4] = tested on: centrosome-amplified (4NCA) DLD1 cells; test: Multipolar spindle assay (4NCA cell line); assay type: cell-based, human
Excerpt: as §2, §3, §4

[5] = Kinetic aqueous solubility (KSol), HPLC-UV; assay type: physicochemical; details: PBS buffer pH 7.4, 100 μM solution with 1% DMSO, HPLC with UV detection
[6] = preformed microtubules, 3 μM ATP, mean (±SD) n ≥ 3 (Table 4), read-out: HSET ADP-Glo IC50
[7] = preformed microtubules, 3 μM ATP, mean (±SD) n ≥ 3, >200 from a single determination (Table 1), read-out: HSET ADP-Glo IC50
[8] = 15 μM, 4NCA DLD1 cells (Table 4)
[9] = 15 µM, 4NCA cells, supplementary CSV
[10] = preformed microtubules, 3 μM ATP, mean (±SD) n ≥ 3 (37 n = 2, 38 single determination) (Table 3), read-out: HSET ADP-Glo IC50

- IC50 [1]: > 200 µM
- LE [3]: 0.33
- LLE [3]: 4.6
- IC50 [3, 6]: 0.063 µM
- IC50 [3, 7]: 0.063 µM
SMILES: CCOC(=O)c1sc(NC(=O)CCNC(=O)c2cccc(-c3noc(C)n3)c2)nc1C [Compound 13, Ethyl 4-Methyl-2-(3-(3-(5-methyl-1,2,4-oxadiazol-3-yl)benzamido)propanamido)thiazole-5-carboxylate]
- % Multipolarity above baseline @ 15 mM (4N cells) ([2]; 15 μM): 1%
- effect on multipolar mitoses (4N), in words ([2]; 15 μM, non-centrosome amplified DLD1 (4N) cell line): no increases in multipolar mitoses
- % multipolarity above baseline @ 15 μM (4N cells) [2]: 1%
- % multipolarity above baseline @ 15 μM (4NCA cells) [4, 8]: 9%
- % multipolarity above baseline @ 15 μM (4NCA cells) [4, 9]: 9%
- increase in mitotic spindle multipolarity (4NCA) ([4]; 15 μM, centrosome-amplified (4NCA) DLD1 cell line): ~10%

- IC50 [1]: > 200 µM
- inhibition at 200 µM ([1]; top concentration of 200 μM): 10%
- ligand efficiency (LE) [3]: 0.30
- lipophilic ligand efficiency (LLE) [3]: 2.5
- IC50 ([3]; ATP concentration of 3 μM, read-out: HSET IC50): 2.7 µM
- IC50 ([3]; ATP concentration of 150 μM, read-out: HSET IC50 at higher ATP concentration): 7.1 µM
- LE [3]: 0.30
- LLE [3]: 2.5
- IC50 [3, 6]: 2.73 µM
- IC50 [3, 7]: 2.73 µM
SMILES: CCOC(=O)c1sc(NC(=O)CCNC(=O)c2cccc(C)c2)nc1C [Compound 2, Ethyl 4-Methyl-2-(3-(3-methylbenzamido)propanamido)thiazole-5-carboxylate]
- % Multipolarity above baseline @ 15 mM (4N cells) ([2]; 15 μM): 1%
- % multipolarity above baseline @ 15 μM (4N cells) [2]: 1%
- % multipolarity above baseline @ 15 μM (4NCA cells) [4, 8]: 0%
- % multipolarity above baseline @ 15 μM (4NCA cells) [4, 9]: 0%

- LE [3]: 0.25
- LLE [3]: 2.8
- IC50 [3, 7]: 2.1 µM
- fold reduction in HSET potency ([3]; relative to 13): 33 fold
SMILES: CCOC(=O)c1sc(NC(=O)CCNC(=O)c2cccc(-c3noc(CC)n3)c2)nc1C [Compound 14, Ethyl 2-(3-(3-(5-Ethyl-1,2,4-oxadiazol-3-yl)benzamido)propanamido)-4-methylthiazole-5-carboxylate]

The next lines start with the molecule.

SMILES: CCCOC(=O)c1sc(NC(=O)C[C@H](CCCN)NC(=O)c2cccc(-c3noc(C)n3)c2)nc1C [Compound 33, Propyl (S)-2-(6-Amino-3-(3-(5-methyl-1,2,4-oxadiazol-3-yl)benzamido)hexanamido)-4-methylthiazole-5-carboxylate]
- KSol data [5]: >90 µM
- IC50 [3, 10]: 0.013 µM

SMILES: CCCOC(=O)c1sc(NC(=O)C[C@@H](CCCNC)NC(=O)c2cccc(-c3noc(C)n3)c2)nc1C [Compound 34, Propyl (R)-4-Methyl-2-(3-(3-(5-methyl-1,2,4-oxadiazol-3-yl)benzamido)-6-(methylamino)hexanamido)thiazole-5-carboxylate]
- KSol data [5]: >90 µM
- IC50 [3, 10]: 0.26 µM

SMILES: CCCOC(=O)c1sc(NC(=O)C[C@H](CCCN(C)CCOCCOCCNC(=O)O[C@@H]2CC/C=C/CCC2)NC(=O)c2cccc(-c3noc(C)n3)c2)nc1C [Compound 39, Propyl 2-((S)-1-(((S,E)-Cyclooct-4-en-1-yl)oxy)-11-methyl-15-(3-(5-methyl-1,2,4-oxadiazol-3-yl)benzamido)-1-oxo-5,8-dioxa-2,11-diazaheptadecan-17-amido)-4-methylthiazole-5-carboxylate]
- KSol data [5]: 53 µM
- IC50 [3, 10]: 0.107 µM

SMILES: CCOC(=O)c1nc(NC(=O)CCNC(=O)c2cccc(-c3noc(C)n3)c2)cn1C [Compound 29, Ethyl 1-Methyl-4-(3-(3-(5-methyl-1,2,4-oxadiazol-3-yl)benzamido)propanamido)-1H-imidazole-2-carboxylate]
- HSET inhibitory activity (in words) ([3]; HSET ADP-Glo): no HSET inhibition
- IC50 ([3]; preformed microtubules, 3 μM ATP, mean (±SD) n ≥ 3, >200 from a single determination (Table 2), read-out: HSET ADP-Glo IC50): > 200 µM

SMILES: CCOC(=O)c1sc(NC(=O)CCNC(=O)c2cccc(CC)c2)nc1C [Compound 5, Ethyl 2-(3-(3-Ethylbenzamido)propanamido)-4-methylthiazole-5-carboxylate]
- LE [3]: 0.29
- LLE [3]: 2.2
- IC50 [3, 7]: 2.32 µM

SMILES: CCOC(=O)c1sc(NC(=O)CCNC(=O)c2ccc(C)cc2)nc1C [Compound 4, Ethyl 4-Methyl-2-(3-(4-methylbenzamido)propanamido)thiazole-5-carboxylate]
- IC50 ([3]; 3 μM ATP, curve plateaued, read-out: mean concentration observed at 50% inhibition (HSET ADP-Glo)): 13 µM
- LE [3]: 0.29
- LLE [3]: 2.2
- IC50 [3, 7]: 4.73 µM
